Assay results: patent US6319702A, “Nucleic acids encoding mutant human carboxypeptidase A enzymes” (Glaxo Wellcome, Inc., priority 1993, dated 2001)
Read-outs that look alike come from different tables or passages of the source.

Key:
[1] = Stability and biodistribution of prodrugs in vivo (HPLC of plasma and tissues); design: species or system mice (CD-1 nude; BALB/C where indicated); conditions: for stability in vivo (in words): mice
[2] = target: T1, wild type human carboxypeptidase A1 (Homo sapiens, UniProt P15085); test: Enzyme kinetics of prodrugs with wild type human carboxypeptidase A1 (coupled assay); assay type: biochemical
T1 sequence (P15085 111-419): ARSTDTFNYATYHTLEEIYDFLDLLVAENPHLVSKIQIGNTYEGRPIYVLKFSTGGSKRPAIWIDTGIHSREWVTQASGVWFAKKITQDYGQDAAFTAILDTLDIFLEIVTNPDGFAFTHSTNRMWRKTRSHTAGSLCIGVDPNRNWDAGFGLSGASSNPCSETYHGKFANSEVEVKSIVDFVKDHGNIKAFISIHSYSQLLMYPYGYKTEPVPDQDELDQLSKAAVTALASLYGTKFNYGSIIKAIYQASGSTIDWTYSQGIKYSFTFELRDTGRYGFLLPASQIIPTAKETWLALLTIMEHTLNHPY
Source text: (§1) As indicated herein, the in vivo stable prodrug of the present invention should be a better substrate for a mutant enzyme than the corresponding wild type enzyme in order for the stable prodrug to be activated selectively at the tumour. […] The most relevant kinetic constant in the table is the kcat/Km, which provides an estimate of the second order rate constant for the enzyme catalyzed conversion of prodrug to methotrexate. Thus, the larger the kcat/Km, the more efficient the enzyme with a particular substrate. […] Thus, the single mutation at 268 from thr to gly converted very poor substrates in the wild type enzyme to excellent substrates in the mutant enzyme. […] Thus, the compounds are much better substrates for the mutant enzyme than the wild type enzyme which permits very specific tumor targeted activation of the nontoxic, stable prodrug to the active agent.
(§2) Kinetics were determined by a modification of the coupled assay of Kuefner, et al (1989) Biochemistry 28 2288-2297 in which the product MTX is converted by excess carboxypeptidase G to the pteroate of MTX. In this assay the reaction is followed spectrophotometrically at 315 nm; at this wavelength the change in molar absorbtivity for the coupled reaction was determined to be 9.57 mM^-1 cm^-1. Assays were performed at 25° C. in 25 mM tris-HCl, 100 mM NaCl, pH 7.4. Prodrugs were preincubated at 25° C. with buffer and 17 milliunits of Sigma #C-9658 carboxypeptidase G in 1 ml total volume. Assay was initiated with carboxypeptidase A or the appropriate mutant. Initial velocities were obtained, and standard Michaelis-Menten calculations were used to determine kinetic constants (in Biochemistry, Lehninger, A. L. 1970, Worth Publishers, Inc, NY).

mutant enzyme = test: Substrate behaviour with mutant enzyme; assay type: biochemical, human
Source text: This type of compound is not useful for ADEPT.

268ala = test: Enzyme kinetics of prodrugs with 268ala mutant of human CPA1 (coupled assay); assay type: biochemical; conditions: 25° C., pH 7.4
Source text: as §1, §2

268gly = test: Enzyme kinetics of prodrugs with 268gly mutant of human CPA1 (coupled assay); assay type: biochemical; conditions: 268gly; 25° C., pH 7.4
Source text: as §1, §2

in vivo = conditions: mouse, iv
[3] = CECUM, 30 min, 50 mg/kg i.p. or i.v., CD-1 nude mice
[4] = KIDNEY, 30 min, 50 mg/kg i.p. or i.v., CD-1 nude mice
[5] = KIDNEY, 120 min, 50 mg/kg i.p. or i.v., CD-1 nude mice
[6] = LARGE INTESTINE, 30 min, 50 mg/kg i.p. or i.v., CD-1 nude mice
[7] = LARGE INTESTINE, 120 min, 50 mg/kg i.p. or i.v., CD-1 nude mice
[8] = LIVER, 30 min, 50 mg/kg i.p. or i.v., CD-1 nude mice
[9] = LIVER, 120 min, 50 mg/kg i.p. or i.v., CD-1 nude mice
[10] = SMALL INTESTINE, 30 min, 50 mg/kg i.p. or i.v., CD-1 nude mice
[11] = SPLEEN, 30 min, 50 mg/kg i.p. or i.v., CD-1 nude mice
[12] = TUMOR, 30 min, 50 mg/kg i.p. or i.v., CD-1 nude mice
[13] = mouse, cecum, 50 mg/kg, CECUM, 30 min, 50 mg/kg i.p. or i.v., CD-1 nude mice, read-out: stability: percentage of material observed as intact prodrug, cecum
[14] = mouse, kidney, 50 mg/kg, KIDNEY, 30 min, 50 mg/kg i.p. or i.v., CD-1 nude mice, read-out: stability: percentage of material observed as intact prodrug, kidney
[15] = mouse, large intestine, 50 mg/kg, LARGE INTESTINE, 30 min, 50 mg/kg i.p. or i.v., CD-1 nude mice, read-out: stability: percentage of material observed as intact prodrug, large intestine
[16] = mouse, large intestine, 50 mg/kg, LARGE INTESTINE, 120 min, 50 mg/kg i.p. or i.v., CD-1 nude mice, read-out: stability: percentage of material observed as intact prodrug, large intestine
[17] = mouse, liver, 50 mg/kg, LIVER, 30 min, 50 mg/kg i.p. or i.v., CD-1 nude mice, read-out: stability: percentage of material observed as intact prodrug, liver (converted)
[18] = mouse, liver, 50 mg/kg, LIVER, 120 min, 50 mg/kg i.p. or i.v., CD-1 nude mice, read-out: stability: percentage of material observed as intact prodrug, liver
[19] = mouse, plasma, 50 mg/kg, PLASMA, 30 min, 50 mg/kg i.p. or i.v., CD-1 nude mice, read-out: concentration of prodrug in plasma
[20] = mouse, plasma, 50 mg/kg, PLASMA, 30 min, 50 mg/kg i.p. or i.v., CD-1 nude mice, read-out: stability: percentage of material observed as intact prodrug, plasma
[21] = mouse, small intestine, 50 mg/kg, SMALL INTESTINE, 30 min, 50 mg/kg i.p. or i.v., CD-1 nude mice, read-out: stability: percentage of material observed as intact prodrug, small intestine
[22] = mouse, small intestine, 50 mg/kg, SMALL INTESTINE, 120 min, 50 mg/kg i.p. or i.v., CD-1 nude mice, read-out: stability: percentage of material observed as intact prodrug, small intestine
[23] = mouse, spleen, 50 mg/kg, SPLEEN, 30 min, 50 mg/kg i.p. or i.v., CD-1 nude mice, read-out: stability: percentage of material observed as intact prodrug, spleen
[24] = mouse, tumor, 50 mg/kg, TUMOR, 30 min, 50 mg/kg i.p. or i.v., CD-1 nude mice, read-out: stability: percentage of material observed as intact prodrug, tumor

SMILES	concentration of prodrug in cecum [1, 3] [nmol/g]	concentration of prodrug in kidney [1, 4] [nmol/g]	concentration of prodrug in kidney [1, 5] [nmol/g]	concentration of prodrug in large intestine [1, 6] [nmol/g]	concentration of prodrug in large intestine [1, 7] [nmol/g]	concentration of prodrug in liver [1, 8] [nmol/g]	concentration of prodrug in liver [1, 9] [nmol/g]	concentration of prodrug in small intestine [1, 10] [nmol/g]	concentration of prodrug in spleen [1, 11] [nmol/g]	concentration of prodrug in tumor [1, 12] [nmol/g]	stability in vivo (in words) ([1]; 50 mg/kg)	remaining at 0.5 h [1, 13] [%]	remaining at 0.5 h [1, 14] [%]	remaining at 0.5 h [1, 15] [%]	remaining at 2 h [1, 16] [%]	remaining at 0.5 h [1, 17] [%]	remaining at 2 h [1, 18] [%]	concentration at 0.5 h [1, 19] [µM]	remaining at 0.5 h [1, 20] [%]	remaining at 0.5 h [1, 21] [%]	other results
CN(Cc1cnc2nc(N)nc(N)c2n1)c1ccc(C(=O)N[C@@H](CCC(=O)O)C(=O)N[C@@H](Cc2cccc(C3CCC3)c2)C(=O)O)cc1 [Prodrug 11]	4.5	7.3	3.0	2.7	4.4	53.8	47.8	301.3	2.7	4.8	stable in vivo	100	83.5	74.5	85	81.3	73.3	22.2	97.1	86.7	concentration of prodrug in cecum ([1]; CECUM, 120 min, 50 mg/kg i.p. or i.v., CD-1 nude mice): 0.8 nmol/g; concentration of prodrug in feces ([1]; FECES, 30 min, 50 mg/kg i.p. or i.v., CD-1 nude mice): 426.8 nmol/g; concentration of prodrug in feces ([1]; FECES, 120 min, 50 mg/kg i.p. or i.v., CD-1 nude mice): 389.8 nmol/g; concentration of prodrug in small intestine ([1]; SMALL INTESTINE, 120 min, 50 mg/kg i.p. or i.v., CD-1 nude mice): 140.0 nmol/g; concentration of prodrug in tumor ([1]; TUMOR, 120 min, 50 mg/kg i.p. or i.v., CD-1 nude mice): 2.4 nmol/g; remaining at 2 h ([1]; mouse, cecum, 50 mg/kg, CECUM, 120 min, 50 mg/kg i.p. or i.v., CD-1 nude mice, read-out: stability: percentage of material observed as intact prodrug, cecum): 100%; remaining at 0.5 h ([1]; mouse, feces, 50 mg/kg, FECES, 30 min, 50 mg/kg i.p. or i.v., CD-1 nude mice, read-out: stability: percentage of material observed as intact prodrug, feces (converted)): 92.3%; remaining at 2 h ([1]; mouse, feces, 50 mg/kg, FECES, 120 min, 50 mg/kg i.p. or i.v., CD-1 nude mice, read-out: stability: percentage of material observed as intact prodrug, feces): 67.9%; remaining at 2 h ([1]; mouse, kidney, 50 mg/kg, KIDNEY, 120 min, 50 mg/kg i.p. or i.v., CD-1 nude mice, read-out: stability: percentage of material observed as intact prodrug, kidney): 82.3%; remaining at 2 h [1, 22]: 67.7%; remaining at 0.5 h [1, 23]: 96.5%; remaining at 0.5 h [1, 24]: 100%; remaining at 2 h ([1]; mouse, tumor, 50 mg/kg, TUMOR, 120 min, 50 mg/kg i.p. or i.v., CD-1 nude mice, read-out: stability: percentage of material observed as intact prodrug, tumor): 88.1%; substrate for wild type CPA (in words) [2]: not for the wild type enzyme; substrate for a mutant enzyme (in words) (mutant enzyme): good substrates for a mutant enzyme
CN(Cc1cnc2nc(N)nc(N)c2n1)c1ccc(C(=O)N[C@@H](CCC(=O)O)C(=O)N[C@@H](Cc2ccccc2)C(=O)O)cc1 [Prodrug 10, N-(4-(((2,4-diamino-6-pteridinyl)methyl)methylamino)benzoyl)-L-glutam-1-yl-L-pheylalanine, reference compound]	3.0	26.9	0.0	19.3	1.1	335.1	0.6	17.3	19.9	3.0	not stable in vivo	65	100	65.3	21.6	94.4	7.55	17.8	30.2	16	concentration at 2 h ([1]; mouse, plasma, 50 mg/kg, PLASMA, 120 min, 50 mg/kg i.p. or i.v., CD-1 nude mice, read-out: concentration of prodrug in plasma): 1.1 µM; remaining at 2 h ([1]; mouse, plasma, 50 mg/kg, PLASMA, 120 min, 50 mg/kg i.p. or i.v., CD-1 nude mice, read-out: stability: percentage of material observed as intact prodrug, plasma): 2.1%; remaining at 2 h [1, 22]: 0%; remaining at 0.5 h [1, 23]: 80.4%; remaining at 0.5 h [1, 24]: 65%; substrate for wild type CPA (in words) [2]: good substrate; Km (268ala): 0.9 µM; kcat (268ala): 2 s⁻¹; Km (268gly): 0.3 µM; kcat (268gly): 2.2 s⁻¹
CN(Cc1cnc2nc(N)nc(N)c2n1)c1ccc(C(=O)N[C@@H](CCC(=O)O)C(=O)N[C@@H](Cc2cccc(C3CCCC3)c2)C(=O)O)cc1	–	–	–	–	–	–	–	–	–	–	–	–	–	–	–	–	–	–	–	–	kcat (symbol ND) ([2]; Human CPA1, rate too slow to assay): ND (not determined; rate to slow assay. kcat ≤ 0.0005/sec.); Km (268ala): 31 µM; kcat (268ala): 0.001 s⁻¹; Km (268gly): 15 µM; kcat (268gly): 1.4 s⁻¹; MTD (in vivo): > 40 mg/kg; NOAEL (in vivo): ≥ 40 mg/kg
